In US20230331803A1, “CO-AGONISTS OF THE GLP-1 AND AMYLIN RECEPTORS” (priority 2020, published 2023):
Like-named read-outs stand apart in the source and are kept apart here. Starred links: 1 amine or outer side, 2 acyl side, 3 side chain; linkers in the order of their positions; H or OH if unused. Non-standard residues stand in square brackets, D forms with d. Groups on a side chain read outwards from the residue. *: point of attachment. Undecanoyl(11-OPh(4-COOH)) = O=C(O)c1ccc(OCCCCCCCCCCC(=O)*)cc1; Decanoyl(10-(4-HOOC-PhO)) = O=C(O)c1ccc(OCCCCCCCCCC(=O)*)cc1; C20 diacid = O=C(O)CCCCCCCCCCCCCCCCCCC(=O)*; C18 diacid = O=C(O)CCCCCCCCCCCCCCCCC(=O)*; C16 diacid = O=C(O)CCCCCCCCCCCCCCC(=O)*; γGlu = O=C(O)[C@H](CCC(=O)[*:2])N[*:1]; C14 diacid = O=C(O)CCCCCCCCCCCCC(=O)*; Desaminohistidyl = O=C(CCc1c[nH]cn1)*; εLys = N[C@@H](CCCCN[*:1])C(=O)[*:2]; Trx = NC[C@H]1CC[C@H](C(=O)O)CC1; AEEA = NCCOCCOCC(=O)O; Aib = CC(C)(N)C(=O)O; Ahx = NCCCCCC(=O)O

Experiments:
human GLP-1 receptor = target: T1, human GLP-1 receptor (Homo sapiens, UniProt P43220); assay: Human GLP-1 receptor in vitro potency assay (CRE-luciferase reporter, BHK cells); format: cell-based
T1 construct: expressed in transfected cells; host or cells: BHK (Baby Hamster Kidney) cells, clone BHK 467-12A KZ-10, stably transfected, with CRE-luciferase reporter
Method: It is thus possible to measure GLP-1 receptor activity using a CRE-luciferase reporter gene introduced into Baby Hamster Kidney (BHK) cells co-expressing the GLP-1 receptor.
Cells were aliquoted and stored at -180° C. until use.
Plates were sealed and incubated at room temperature with gentle shaking for 30 minutes while protected from light. Luminescence was detected on a luminescence plate reader e.g. a Synergy 2 (BioTek).

[1] = target: T2, human amylin receptor (hAmyR3) (Homo sapiens, UniProt O60896+P30988); assay: Human amylin receptor in vitro potency assay (CRE-luciferase reporter, BHK cells); format: cell-based;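 note: BHK cells expressing human calcitonin receptor plus RAMP3 (amylin-3 receptor) with a CRE-luciferase reporter, agonist activity read as luminescence from cAMP-driven transcription, 7-point serial dilutions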
T2 construct: host or cells: BHK cells (Hollex-1 line: human calcitonin receptor (a) + CRE-Luc), further transfected with human RAMP3

[2] = Table 4a, BHK cells expressing human GLP-1R, CRE-Luc, 3 hours, read-out: Human GLP-1R potency [EC50 (pM)]
[3] = Table 4a, BHK hAmyR3/CRE-Luc cells, 3 hours, read-out: Human AmyR3 potency [EC50 (pM)]

T2 sequence (P30988 25-474): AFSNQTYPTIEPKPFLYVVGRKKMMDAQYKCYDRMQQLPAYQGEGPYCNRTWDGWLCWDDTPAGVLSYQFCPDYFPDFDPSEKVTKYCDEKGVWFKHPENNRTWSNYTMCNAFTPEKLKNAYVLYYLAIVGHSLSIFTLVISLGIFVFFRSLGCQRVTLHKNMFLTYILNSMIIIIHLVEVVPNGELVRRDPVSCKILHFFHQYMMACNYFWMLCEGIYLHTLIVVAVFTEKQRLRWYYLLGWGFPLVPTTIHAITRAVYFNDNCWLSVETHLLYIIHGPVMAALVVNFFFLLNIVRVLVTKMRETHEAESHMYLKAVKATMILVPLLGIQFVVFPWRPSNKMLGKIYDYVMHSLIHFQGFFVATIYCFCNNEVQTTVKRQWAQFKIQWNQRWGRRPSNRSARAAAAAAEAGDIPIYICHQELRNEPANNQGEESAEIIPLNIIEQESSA
T2 sequence (O60896 24-148): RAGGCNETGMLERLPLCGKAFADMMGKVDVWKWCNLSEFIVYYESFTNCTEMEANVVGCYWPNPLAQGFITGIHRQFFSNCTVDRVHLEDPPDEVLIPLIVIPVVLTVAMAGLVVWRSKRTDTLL
T1 sequence (P43220 24-463): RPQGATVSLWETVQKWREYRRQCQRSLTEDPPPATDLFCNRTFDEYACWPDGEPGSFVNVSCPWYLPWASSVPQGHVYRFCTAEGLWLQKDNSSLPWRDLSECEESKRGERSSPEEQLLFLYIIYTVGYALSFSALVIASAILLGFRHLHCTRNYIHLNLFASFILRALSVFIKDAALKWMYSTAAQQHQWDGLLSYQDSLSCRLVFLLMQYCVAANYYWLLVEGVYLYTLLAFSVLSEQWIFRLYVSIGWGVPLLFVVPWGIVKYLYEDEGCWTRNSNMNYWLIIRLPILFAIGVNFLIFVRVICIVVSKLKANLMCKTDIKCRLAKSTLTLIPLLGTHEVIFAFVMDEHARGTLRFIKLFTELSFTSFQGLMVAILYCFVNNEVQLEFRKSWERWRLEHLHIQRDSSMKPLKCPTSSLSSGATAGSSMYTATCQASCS

Molecule | EC50 (human GLP-1 receptor; [2]) | EC50 [1, 3] | EC50 (human GLP-1 receptor) | EC50 [1]
CC[C@H](C)[C@H](NC(=O)[C@H](Cc1ccccc1)NC(=O)[C@H](CCC(=O)O)NC(=O)[C@H](CCCNC(=N)N)NC(=O)[C@H](C)NC(=O)[C@H](C)NC(=O)[C@H](CCC(N)=O)NC(=O)[C@H](CCC(=O)O)NC(=O)[C@H](CCC(=O)O)NC(=O)[C@H](CC(C)C)NC(=O)[C@H](Cc1ccc(O)cc1)NC(=O)[C@H](CO)NC(=O)[C@H](CO)NC(=O)[C@@H](NC(=O)[C@H](CC(=O)O)NC(=O)[C@H](CO)NC(=O)[C@@H](NC(=O)[C@H](Cc1ccccc1)NC(=O)[C@@H](NC(=O)CNC(=O)[C@H](CCC(=O)O)NC(=O)C(C)(C)NC(=O)CCc1c[nH]cn1)[C@@H](C)O)[C@@H](C)O)C(C)C)C(=O)N[C@@H](C)C(=O)N[C@@H](Cc1c[nH]c2ccccc12)C(=O)N[C@@H](CC(C)C)C(=O)N[C@H](C(=O)N[C@@H](CCCNC(=N)N)C(=O)NCC(=O)N[C@@H](CCCNC(=N)N)C(=O)N[C@@H](CCCCNC(=O)CCCS(=O)(=O)NC(=O)CCCCCCCCCCCCCCCCc1nnn[nH]1)C(=O)N[C@@H](CCC(=O)O)C(=O)N[C@@H](C)C(=O)N[C@@H](CO)C(=O)N[C@@H](CCC(=O)O)C(=O)N[C@@H](CC(C)C)C(=O)N[C@@H](CO)C(=O)N[C@H](C(=O)N[C@@H](C)C(=O)N[C@@H](C)C(=O)N[C@@H](CC(C)C)C(=O)NCC(=O)N[C@@H](CCCNC(=N)N)C(=O)N[C@@H](CC(C)C)C(=O)N[C@@H](CO)C(=O)N[C@@H](C)C(=O)N[C@@H](CCC(=O)O)C(=O)N[C@@H](CC(C)C)C(=O)N[C@@H](Cc1c[nH]cn1)C(=O)N[C@@H](CCC(=O)O)C(=O)N[C@@H](CC(C)C)C(=O)N[C@@H](C)C(=O)N[C@H](C(=O)N[C@@H](CC(C)C)C(=O)N1CCC[C@H]1C(=O)N[C@@H](CCCNC(=N)N)C(=O)N[C@H](C(=O)N[C@@H](CCC(=O)O)C(=O)N[C@H](C(=O)NCC(=O)N[C@@H](CO)C(=O)NCC(=O)N[C@@H](CO)C(=O)N1CCC[C@H]1C(N)=O)[C@@H](C)O)[C@@H](C)O)[C@@H](C)O)[C@@H](C)O)C(C)C [Compound 0124] | 27.9 pM | 24.4 pM |  | 
H-HAEGTFTSDVSSYLEEK([AEEA-AEEA-γGlu-C20 diacid])AAREFIEWLVRGRGEASELSTAALGRLSAELHELATLPRTETGSGSP-NH2 [Compound 0474] | 2.9 pM | 21.8 pM |  | 
H-H[Aib]EGTFTSDVSSYLEGQAAK([AEEA-AEEA-γGlu-C18 diacid])EFIAWLVRGRGGGGEASELSTAALGRLSAELHELATLPRTETGSGSP-NH2 [Compound 0040] | 20.7 pM | 7.7 pM |  | 
H[Aib]EGTFTSDVSSYLEEQAARK([AEEA-AEEA-γGlu-C18 diacid])FIAWLVRGK([AEEA-AEEA-γGlu-C18 diacid])GGEASELSTAALGRLSAELHELATLPRTETGSGSP-NH2 [Compound 0127] | 7.1 pM | 63.9 pM |  | 
CC[C@H](C)[C@H](NC(=O)[C@H](Cc1ccccc1)NC(=O)[C@H](CCC(=O)O)NC(=O)[C@H](CCCCNC(=O)COCCOCCNC(=O)COCCOCCNC(=O)CC[C@H](NC(=O)CCCCCCCCCCCCCCCCC(=O)O)C(=O)O)NC(=O)[C@H](C)NC(=O)[C@H](C)NC(=O)[C@H](CCC(N)=O)NC(=O)CNC(=O)[C@H](CCC(=O)O)NC(=O)[C@H](CC(C)C)NC(=O)[C@H](Cc1ccc(O)cc1)NC(=O)[C@H](CO)NC(=O)[C@H](CO)NC(=O)[C@@H](NC(=O)[C@H](CC(=O)O)NC(=O)[C@H](CO)NC(=O)[C@@H](NC(=O)[C@H](Cc1ccccc1)NC(=O)[C@@H](NC(=O)CNC(=O)[C@H](CCC(=O)O)NC(=O)C(C)(C)NC(=O)[C@@H](N)Cc1c[nH]cn1)[C@@H](C)O)[C@@H](C)O)C(C)C)C(=O)N[C@@H](C)C(=O)N[C@@H](Cc1c[nH]c2ccccc12)C(=O)N[C@@H](CC(C)C)C(=O)N[C@H](C(=O)N[C@@H](CCCNC(=N)N)C(=O)NCC(=O)N[C@@H](CCCNC(=N)N)C(=O)NCC(=O)N[C@@H](CCCCNC(=O)COCCOCCNC(=O)COCCOCCNC(=O)CC[C@H](NC(=O)CCCCCCCCCCCCCCCCC(=O)O)C(=O)O)C(=O)N[C@@H](CCC(N)=O)C(=O)N[C@@H](CCC(=O)O)C(=O)N1CCC[C@H]1C(=O)NCC(=O)N[C@@H](CCC(N)=O)C(=O)N[C@@H](CCC(=O)O)C(=O)N1CCC[C@H]1C(=O)N[C@@H](CCC(=O)O)C(=O)N[C@@H](C)C(=O)N[C@@H](CO)C(=O)N[C@@H](CCC(=O)O)C(=O)N[C@@H](CC(C)C)C(=O)N[C@@H](CO)C(=O)N[C@H](C(=O)N[C@@H](C)C(=O)N[C@@H](C)C(=O)N[C@@H](CC(C)C)C(=O)NCC(=O)N[C@@H](CCCNC(=N)N)C(=O)N[C@@H](CC(C)C)C(=O)N[C@@H](CO)C(=O)N[C@@H](C)C(=O)N[C@@H](CCC(=O)O)C(=O)N[C@@H](CC(C)C)C(=O)N[C@@H](Cc1c[nH]cn1)C(=O)N[C@@H](CCC(=O)O)C(=O)N[C@@H](CC(C)C)C(=O)N[C@@H](C)C(=O)N[C@H](C(=O)N[C@@H](CC(C)C)C(=O)N1CCC[C@H]1C(=O)N[C@@H](CCCNC(=N)N)C(=O)N[C@H](C(=O)N[C@@H](CCC(=O)O)C(=O)N[C@H](C(=O)NCC(=O)N[C@@H](CO)C(=O)NCC(=O)N[C@@H](CO)C(=O)N1CCC[C@H]1C(N)=O)[C@@H](C)O)[C@@H](C)O)[C@@H](C)O)[C@@H](C)O)C(C)C [Compound 0056] |  |  | 41.4 pM | 120 pM
H-HWEGTFTSDVSSYLEEQAARK([AEEA-AEEA-γGlu-Undecanoyl(11-OPh(4-COOH))])FIEWLVRGRGEGGGGGASELSTAALGRLSK([AEEA-AEEA-γGlu-Undecanoyl(11-OPh(4-COOH))])ELHELATLPRTETGSGSP-NH2 [Compound 0255] |  |  | 2.5 pM | 28.6 pM
H-H[Aib]EGTFTSDVSSYLEEQAAREFIAWLVRGRK([AEEA-AEEA-AEEA-AEEA-γGlu-C20 diacid])GGGGEASELSTAALGRLSAELHELATLPRTETGSGSP-NH2 [Compound 0663] | 3.2 pM | 12.6 pM |  | 
H-H[Aib]EGTFTSDVSSYLEEQAAREFIAWLVRGRK([Ahx-Ahx-γGlu-C18 diacid])GGGGEASELSTAALGRLSAELHELATLPRTETGSGSP-NH2 [Compound 0658] | 3.1 pM | 11 pM |  | 
H-H[Aib]EGTFTSDVSSYLEGQAAREFIAWLVRGRK([AEEA-AEEA-γGlu-C18 diacid])GQEPGQAPEASELSTAALGRLSAELHELATLPRTETGSGSP-NH2 [Compound 0083] | 5.4 pM | 46.2 pM |  | 
HGEGTFTSDVSSYLEEQAARK([AEEA-AEEA-γGlu-Decanoyl(10-(4-HOOC-PhO))])FIEWLVRGK([AEEA-AEEA-γGlu-Decanoyl(10-(4-HOOC-PhO))])GEGGGGGGGGGEASELSTAALGRLSAELHELATLPRTETGSGSP-NH2 [Compound 0098] |  |  | 7.9 pM | 15.6 pM
H-H[Aib]EGTFTSDVSK([AEEA-AEEA-γGlu-C14 diacid])YLEEQAVREFIAK([AEEA-AEEA-γGlu-C14 diacid])LVRGRGGGEASELSTAALGRLSAELHELATLPRTETGSGSP-NH2 [Compound 0484] | 72.8 pM | 32.5 pM |  | 
H-H[Aib]EGTFTSDVSSYLEEQAAREFIEWLVRGRK([AEEA-AEEA-γGlu-Trx-C20 diacid])EAEAEASELSTAALGRLSAELHELATLPRTETGSGSP-NH2 [Compound 0179] | 8.8 pM | 35.9 pM |  | 
H-H[Aib]EGTFTSDVSSYLEEK([AEEA-AEEA-γGlu-C16 diacid])AAREFIAWLVRGRGGGGGEASELSTAALGRLSAELHELATLK([AEEA-AEEA-γGlu-C16 diacid])RTETGSGSP-NH2 [Compound 0397] | 3.8 pM | 18.5 pM |  | 
H-H[Aib]EGTFTSDVSSYLEEQAAREFIAWLVRGRK([γGlu-C20 diacid])EASELSTAALGRLSAELHELATLPRTETGSGSP-NH2 [Compound 0141] | 43.3 pM | 13.2 pM |  | 
H-H[Aib]EGTFTSDVSSYLEEQAARK([AEEA-AEEA-γGlu-C16 diacid])FIAWLVRGRGGGGGEASELSTAALGRLSAELHK([AEEA-AEEA-γGlu-C16 diacid])LATLPRTETGSGSP-NH2 [Compound 0509] | 7.1 pM | 29.9 pM |  | 
Desaminohistidyl-AEGTFTSDVSSYLEEQAAREFIAWLVRGRK([AEEA-AEEA-γGlu-C18 diacid])EASELSTAALGRLSAELHELATLPRTETGSGSP-NH2 [Compound 0051] | 14.3 pM | 19.5 pM |  | 
H-HGEGTFTSDVSSYLEEQAARK([AEEA-AEEA-γGlu-C16 diacid])FIEWLVRGK([AEEA-AEEA-γGlu-C16 diacid])GEGGEASELSTAALGRLSAELHELATLPRTETGSGSP-NH2 [Compound 0087] | 23.8 pM | 97.9 pM |  | 
H-HWEGTFTSDVSSYLEEQAARK([εLys-AEEA-AEEA-γGlu-Trx-C20 diacid])FIEWLVRGRGEASELSTAALGRLSAELHELATLPRTETGSGSP-NH2 [Compound 0437] | 12 pM | 11.8 pM |  | 
H-H[Aib]EGTFTSDVSSYLEEK([AEEA-AEEA-γGlu-C16 diacid])AAREFIAWLVRGRGGGGGASELSTAALGRLSK([AEEA-AEEA-γGlu-C16 diacid])ELHELATLPRTETGSGSP-NH2 [Compound 0295] | 4.8 pM | 32.7 pM |  | 
H-H[Aib]EGTFTSDVSSYLEGQAAK([AEEA-AEEA-γGlu-C18 diacid])EFIAWLVRGRGGQEPGQEPEASELSTAALGRLSAELHELATLPRTETGSGSP-NH2 [Compound 0019] | 13.7 pM | 26.5 pM |  | 
HGEGTFTSDVSSYLEEQAARK([AEEA-AEEA-γGlu-Decanoyl(10-(4-HOOC-PhO))])FIEWLVRGK([AEEA-AEEA-γGlu-Decanoyl(10-(4-HOOC-PhO))])GEGGGGGEASELSTAALGRLSAELHELATLPRTETGSGSP-NH2 [Compound 0097] |  |  | 10 pM | 93.1 pM
